Test results from publication PMC9106635, “Stimulation of the atypical chemokine receptor 3 (ACKR3) by a small-molecule agonist attenuates fibrosis in a preclinical liver but not lung injury model” (Cellular and Molecular Life Sciences: CMLS, 2022).

How the values were obtained:
[1] = test system: CCl4-induced liver fibrosis in C57BL/6J mice; test: CCl4-induced liver fibrosis model; format: in vivo, mouse; details: 45 mg/kg/dose PO QD, day 28, vs CCl4 + captisol; P < 0.0001 and P = 0.004
Method: A preclinical mouse model for CCl4-induced liver fibrosis was performed at the Department of Metabolic Health Research, The Netherlands Organisation for Applied Scientific Research (TNO) (Leiden, The Netherlands). Fifty-two male C57BL/6J mice were matched on body weight prior to the study and divided into five groups (experimental study design, Supplementary Figure S1a). Starting at day 0, 10–12-week-old mice were intraperitoneally (i.p.) injected (three times a week) with mineral oil (group 1) or CCl4 (15% v/v in mineral oil, group 2–5) for a total of 28 days. At day 0, mice received subcutaneous treatment with compound 18a (15 mg/kg/dose, twice daily (BID), group 3), or corresponding vehicle control (23% HPBCD, twice daily (BID), groups 1 and 2)], or received daily gavage with either an ALK5/ALK4 kinase inhibitor [SM 16 (45 mg/kg/dose, PO, QD, group 5) or its corresponding vehicle control (β-cyclodextrin sulfobutyl ether sodium salt or captisol, PO, QD, group 4)]. Plasma samples were collected by a tail vein bleed at day 7. At day 28, mice were sacrificed using CO2 and additional plasma samples and liver lobes were collected. As a primary endpoint collagen surface area was determined on cross-sections of the lateral left lobe by picro sirius red (PSR) staining. As a secondary endpoint collagen content (hydroxyproline) of the left median lobe was analyzed using a chromogenic assay according to the manufacturer’s instructions (QuickZyme Biosciences, Leiden, The Netherlands).

[2] = test system: mouse CXCL12 plasma levels; test: Mouse CXCL12 plasma determination (Bio-Plex); format: in vivo; details: liver fibrosis model, day 28, 45 mg/kg/dose PO QD
Method: CXCL12 plasma levels were determined using Bio-Plex Pro Mouse Chemokine SDF-1a/CXCL12 (Bio-Rad) according to the manufacturer’s protocol. Prior to the assay mouse plasma samples were centrifuged for 15 min at 1000×g at 4 °C to remove any particulates. A four-fold dilution series of mouse CXCL12, blank samples and 1:5 diluted plasma samples were prepared. A 1:1 mixture of magnetic beads (50 µL/well) and sample (50 µL/well) was added to the 96-well assay plate, which was then sealed and incubated (30 min at RT) on a plate shaker at 850 rpm protected from light. After washing three times with wash buffer 25 µL/well detection antibody was added and the plate was again incubated as described above. The plate was again washed three times (100 µL/well wash buffer) followed by the addition of streptavidin-PE (50 µL/well). The plate was sealed and incubated (10 min at RT) at 850 rpm protected from light. Finally, the plate was again washed three times and the magnetic beads were resuspended in fresh assay buffer (152 µL/well). The plate was sealed and shaken for an additional 30 s before being analyzed with the Bioplex 200 System. Data were analyzed with the Bio-Plex Manager Software.

## Cc1cccc(-c2[nH]c(C34CCC(C(N)=O)(CC3)CC4)nc2-c2ccc3c(c2)OCO3)n1 [SM 16, reference compound]
[1]
  liver fibrosis: PSR-positive area and hydroxyproline content: significantly attenuated liver fibrosis
[2]
  plasma CXCL12 levels: no further increase of plasma CXCL12 was observed
